One data set addresses GSPT1 (Homo sapiens, UniProt P15170+Q96SW2). Conditions: cereblon-dependent; also other targets such as IKZF1 and IKZF3 (Matyskiela, Lu et al. 2016); cited from earlier work.
The test system of a further data set is tested cell lines. Conditions: tested cell lines (Matyskiela, Lu et al. 2016); cited from earlier work.
The subject of data set [1] is MOLM-13 cells. Kind of data set: Cell viability assay (CellTiter-Glo) in MOLM-13 cells, alone or with gilteritinib. Type of data set: cell-based. The settings on record: MOLM-13 cells; for pIC50: Homo sapiens, MOLM-13, 72 h, CellTiter-Glo; for Sensitivity of FLT3-mutant AML cells to GSPT1 degrader upon FLT3 inhibition: with or without 20 nM gilteritinib, 3 days (FIG. 2A-2C).

A further data set deals with MV4;11 cells. Description: Cell viability assay (CellTiter-Glo) in MV4;11 cells, alone or with gilteritinib. Type of data set: cell-based. Conditions: Homo sapiens, MV4-11, 72 h, MV4;11 cells, CellTiter-Glo, read-out: MV4.
The test system of data set [2] is MOLM-13 cells. Kind of data set: Cell viability / cell growth inhibition of MOLM-13 cells, GSPT1 degrader with or without gilteritinib. The settings on record: combined with FLT3 inhibitor gilteritinib (20 nM in FIG. 2A-2C). Type of data set: cell-based. The procedure:
FIG. 2A is a graph of cell viability in MOML-13 cells treated with varying doses of GS-002, with or without gilteritinib at 20 nM.
FIG. 2B is a graph of cell viability in MOML-13 cells treated with varying doses of GS-005, with or without gilteritinib at 20 nM.
FIG. 2C is a graph of cell viability in MOML-13 cells treated with varying doses of GS-006, with or without gilteritinib at 20 nM.
When combined with FLT3 inhibitor gilteritinib, the potency of some of the compounds was increased synergistically.

Setting [3] is: with 20 nM gilteritinib, 3 days, read-out: MOLM-13 IC50 gilteritinib.
[4] abbreviates: without gilteritinib, 3 days, read-out: MOLM-13 IC50.
[5] abbreviates: with 10 nM gilteritinib, 3 days, 11 IC50 gilteritinib.
[6] abbreviates: without gilteritinib, 3 days, 11 IC50.
Setting [7] is: compound alone (without gilteritinib), three days, read-out: MOLM-13 IC50.
Setting [8] is: compound with gilteritinib 20 nM, three days, read-out: MOLM-13 IC50 gilteritinib.
The mark [9] stands for this setting: compound alone (without gilteritinib), three days, 11 IC50.
Where [10] appears, read: compound with gilteritinib 10 nM, three days, 11 IC50 gilteritinib.

pIC50: −log10 of the molar value. Like-named read-outs stand apart in the source and are kept apart here. A value given as a limit tells only on which side of the number the result lay.

Sequence of GSPT1 (P15170 whole entry): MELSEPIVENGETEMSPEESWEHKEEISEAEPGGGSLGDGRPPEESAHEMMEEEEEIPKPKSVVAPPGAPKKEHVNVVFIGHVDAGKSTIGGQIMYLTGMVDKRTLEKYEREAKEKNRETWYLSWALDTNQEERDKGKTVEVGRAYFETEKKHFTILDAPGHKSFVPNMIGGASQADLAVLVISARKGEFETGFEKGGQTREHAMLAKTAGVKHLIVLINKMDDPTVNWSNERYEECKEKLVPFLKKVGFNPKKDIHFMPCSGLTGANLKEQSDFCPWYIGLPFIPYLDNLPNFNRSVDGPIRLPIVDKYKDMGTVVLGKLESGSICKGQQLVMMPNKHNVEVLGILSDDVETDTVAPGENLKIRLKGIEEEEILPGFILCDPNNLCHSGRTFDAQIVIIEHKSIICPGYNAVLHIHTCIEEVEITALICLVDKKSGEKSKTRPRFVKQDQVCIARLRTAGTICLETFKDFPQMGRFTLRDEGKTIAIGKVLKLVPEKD
Sequence of GSPT1 (Q96SW2 whole entry): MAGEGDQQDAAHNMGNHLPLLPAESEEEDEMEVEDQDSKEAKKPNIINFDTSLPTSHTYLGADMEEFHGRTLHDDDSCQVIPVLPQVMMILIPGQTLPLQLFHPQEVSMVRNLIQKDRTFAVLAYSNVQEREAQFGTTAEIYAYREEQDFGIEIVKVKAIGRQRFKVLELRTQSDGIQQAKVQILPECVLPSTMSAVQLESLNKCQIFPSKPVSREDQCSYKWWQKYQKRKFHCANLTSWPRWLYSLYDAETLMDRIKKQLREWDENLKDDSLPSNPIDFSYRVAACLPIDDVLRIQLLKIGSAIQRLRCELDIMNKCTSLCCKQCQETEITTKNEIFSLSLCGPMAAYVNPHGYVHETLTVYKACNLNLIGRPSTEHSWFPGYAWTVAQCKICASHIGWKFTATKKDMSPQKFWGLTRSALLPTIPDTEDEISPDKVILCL
Sequence of GSPT1 (Q16531 whole entry partner): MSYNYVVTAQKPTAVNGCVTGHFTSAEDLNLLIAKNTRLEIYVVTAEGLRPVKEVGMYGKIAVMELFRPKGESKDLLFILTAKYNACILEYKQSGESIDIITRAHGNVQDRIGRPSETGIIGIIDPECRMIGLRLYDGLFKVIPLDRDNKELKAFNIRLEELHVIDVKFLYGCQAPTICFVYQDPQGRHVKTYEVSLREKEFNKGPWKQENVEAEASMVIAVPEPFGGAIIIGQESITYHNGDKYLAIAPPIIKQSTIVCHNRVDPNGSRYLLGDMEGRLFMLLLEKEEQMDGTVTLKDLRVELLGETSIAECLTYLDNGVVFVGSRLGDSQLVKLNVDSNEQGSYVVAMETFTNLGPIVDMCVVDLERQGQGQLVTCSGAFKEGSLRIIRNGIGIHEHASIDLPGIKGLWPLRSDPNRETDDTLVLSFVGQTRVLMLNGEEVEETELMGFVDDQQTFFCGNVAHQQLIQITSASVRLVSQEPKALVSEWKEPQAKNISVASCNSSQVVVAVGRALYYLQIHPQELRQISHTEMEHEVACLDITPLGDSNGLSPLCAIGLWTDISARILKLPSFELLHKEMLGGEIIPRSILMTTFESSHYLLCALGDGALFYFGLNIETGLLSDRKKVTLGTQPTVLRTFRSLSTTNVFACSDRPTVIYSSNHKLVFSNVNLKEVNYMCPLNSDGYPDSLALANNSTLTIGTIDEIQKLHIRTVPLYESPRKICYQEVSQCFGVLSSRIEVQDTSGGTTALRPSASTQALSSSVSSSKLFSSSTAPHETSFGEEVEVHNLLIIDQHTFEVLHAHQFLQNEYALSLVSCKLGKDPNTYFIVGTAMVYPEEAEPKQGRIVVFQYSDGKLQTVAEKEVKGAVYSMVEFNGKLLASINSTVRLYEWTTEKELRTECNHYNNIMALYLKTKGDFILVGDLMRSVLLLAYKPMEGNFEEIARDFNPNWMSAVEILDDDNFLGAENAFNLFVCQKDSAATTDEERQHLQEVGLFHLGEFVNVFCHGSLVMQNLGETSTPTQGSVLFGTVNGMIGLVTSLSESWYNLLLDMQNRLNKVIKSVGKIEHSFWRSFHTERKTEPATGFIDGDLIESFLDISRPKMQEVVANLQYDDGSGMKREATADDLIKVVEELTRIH

As for `Cc1ccc(NC(=O)NCc2ccc3c(c2)CN(C2CCC(=O)NC2=O)C3=O)cc1Cl` (centres unmarked) [CC-885], the “degradation of GSPT1” value at GSPT1 was “cereblon-dependent degradation of GSPT1”. Moreover, the “toxicity in cell lines” value in the data set on tested cell lines is reported as “significant toxicity in the vast majority of tested cell lines”.
For the molecule `O=C1CCC(N2C(=O)c3ccc(NCCCCCC(=O)N4CCC(n5cc(-c6cnc7cccc(Br)c7n6)cn5)CC4)cc3C2=O)C(=O)N1` (centres unmarked) [GS-002, 5-((6-(4-(4-(8-bromoquinoxalin-2-yl)-1H-pyrazol-1-yl)piperidin-1-yl)-6-oxohexyl)amino)-2-(2,6-dioxopiperidin-3-yl)isoindoline-1,3-dione], the pIC50 is 8.72 in the data set with MOLM-13 cells [1] (setting [3]), 6.23 in the data set with MOLM-13 cells [1] (setting [4]), 8.52 in the data set on MV4;11 cells (setting [5]) and 6.64 in the data set with MV4;11 cells (setting [6]). Moreover, in the data set on MOLM-13 cells [1], the “Sensitivity of FLT3-mutant AML cells to GSPT1 degrader upon FLT3 inhibition” value was “remarkably increases sensitivity”. The “potency combined with gilteritinib, cell growth inhibition” value in the data set on MOLM-13 cells [2] is recorded as “significantly improved”.
For the molecule `O=C1CCC(N2C(=O)c3ccc(NCCCCCC(=O)N4CCC(n5cc(-c6cnc7ccccc7n6)cn5)CC4)cc3C2=O)C(=O)N1` (centres unmarked) [GS-005, 2-(2,6-dioxopiperidin-3-yl)-5-((6-oxo-6-(4-(4-(quinoxalin-2-yl)-1H-pyrazol-1-yl)piperidin-1-yl)hexyl)amino)isoindoline-1,3-dione], the pIC50 in the data set on MOLM-13 cells [1] (setting [3]) is 9.70; with MOLM-13 cells [1] (setting [4]), 7.93; in the data set on MV4;11 cells (setting [5]), 8.74; in the data set with MV4;11 cells (setting [6]), 8.22. Moreover, the “Sensitivity of FLT3-mutant AML cells to GSPT1 degrader upon FLT3 inhibition” value with MOLM-13 cells [1] is on record as “remarkably increases sensitivity”. The “potency combined with gilteritinib, cell growth inhibition” value in the data set with MOLM-13 cells [2] is on record as “significantly improved”.
With `O=C1CCC(N2C(=O)c3ccc(NCCCCCC(=O)N4CCC(n5cc(-c6ccc7ccccc7n6)cn5)CC4)cc3C2=O)C(=O)N1` (centres unmarked) [GS-006, 2-(2,6-dioxopiperidin-3-yl)-5-((6-oxo-6-(4-(4-(quinolin-2-yl)-1H-pyrazol-1-yl)piperidin-1-yl)hexyl)amino)isoindoline-1,3-dione], the pIC50 with MOLM-13 cells [1] (setting [3]) was 9.52; in the data set with MOLM-13 cells [1] (setting [4]), 7.54; in the data set with MV4;11 cells (setting [5]), 8.34; with MV4;11 cells (setting [6]), 7.92. Further, in the data set on MOLM-13 cells [1], the “Sensitivity of FLT3-mutant AML cells to GSPT1 degrader upon FLT3 inhibition” value was “remarkably increases sensitivity”. Also, the “potency combined with gilteritinib, cell growth inhibition” value in the data set with MOLM-13 cells [2] is given as “significantly improved”.
`O=C1CCC(N2C(=O)c3ccc(NCCC[C@H]4C[C@H](n5cc(-c6nccc7ccncc67)c(C6CC6)n5)C4)cc3C2=O)C(=O)N1` (stereo partly drawn) [GS-630, 5-((3-(trans-3-(3-Cyclopropyl-4-(2,7-naphthyridin-1-yl)-1H-pyrazol-1-yl)cyclobutyl)propyl)amino)-2-(2,6-dioxopiperidin-3-yl)isoindoline-1,3-dione]: the pIC50 with MOLM-13 cells [1] (setting [7]) is below 6.00; with MOLM-13 cells [1] (setting [8]) it was above 8.00; in the data set with MV4;11 cells (setting [9]), 6.00 to 7.00; in the data set on MV4;11 cells (setting [10]), above 8.00.
For `O=C1CCC(N2C(=O)c3ccc(NC[C@H]4C[C@H](n5cc(C6CCCC6)c(C6CC6)n5)C4)cc3C2=O)C(=O)N1` (stereo partly drawn) [GS-631, 5-(((trans-3-(4-Cyclopentyl-3-cyclopropyl-1H-pyrazol-1-yl)cyclobutyl)methyl)amino)-2-(2,6-dioxopiperidin-3-yl)isoindoline-1,3-dione], the pIC50 in the data set on MOLM-13 cells [1] (setting [7]) was 6.00 to 7.00; in the data set on MOLM-13 cells [1] (setting [8]), 7.00 to 8.00; in the data set on MV4;11 cells (setting [9]) it was 6.00 to 7.00; in the data set with MV4;11 cells (setting [10]) it was 7.00 to 8.00.
As for `O=C1CCC(N2C(=O)c3ccc(NC[C@H]4C[C@H](n5cc(C6CC6)c(C6CC6)n5)C4)cc3C2=O)C(=O)N1` (stereo partly drawn) [GS-632, 5-(((trans-3-(3,4-Dicyclopropyl-1H-pyrazol-1-yl)cyclobutyl)methyl)amino)-2-(2,6-dioxopiperidin-3-yl)isoindoline-1,3-dione], the pIC50 was below 6.00 with MOLM-13 cells [1] (setting [7]), 6.00 to 7.00 in the data set with MOLM-13 cells [1] (setting [8]), 6.00 to 7.00 with MV4;11 cells (setting [9]) and 6.00 to 7.00 in the data set on MV4;11 cells (setting [10]).
In the case of `CC1CCCCC1c1cn([C@H]2C[C@H](CNc3ccc4c(c3)C(=O)N(C3CCC(=O)NC3=O)C4=O)C2)nc1C1CC1` (stereo partly drawn) [GS-633, 5-(((trans-3-(3-Cyclopropyl-4-(2-methylcyclohexyl)-1H-pyrazol-1-yl)cyclobutyl)methyl)amino)-2-(2,6-dioxopiperidin-3-yl)isoindoline-1,3-dione], the pIC50 is 7.00 to 8.00 with MOLM-13 cells [1] (setting [7]), 7.00 to 8.00 in the data set on MOLM-13 cells [1] (setting [8]), 7.00 to 8.00 with MV4;11 cells (setting [9]) and above 8.00 with MV4;11 cells (setting [10]).
In the case of `O=C1CCC(N2C(=O)c3ccc(NC[C@H]4C[C@H](n5cc(C6CCCCC6O)c(C6CC6)n5)C4)cc3C2=O)C(=O)N1` (stereo partly drawn) [GS-634, 5-(((trans-3-(3-Cyclopropyl-4-(2-hydroxycyclohexyl)-1H-pyrazol-1-yl)cyclobutyl)methyl)amino)-2-(2,6-dioxopiperidin-3-yl)isoindoline-1,3-dione], the pIC50 in the data set with MOLM-13 cells [1] (setting [7]) is 6.00 to 7.00; in the data set on MOLM-13 cells [1] (setting [8]) it was 7.00 to 8.00; with MV4;11 cells (setting [9]), 7.00 to 8.00; in the data set on MV4;11 cells (setting [10]) it was above 8.00.
As for `Cc1nc(-c2cn([C@H]3C[C@H](CNc4ccc5c(c4)C(=O)N(C4CCC(=O)NC4=O)C5=O)C3)nc2C(F)F)ccc1F` (stereo partly drawn) [GS-635, 5-(((trans-3-(3-(Difluoromethyl)-4-(5-fluoro-6-methylpyridin-2-yl)-1H-pyrazol-1-yl)cyclobutyl)methyl)amino)-2-(2,6-dioxopiperidin-3-yl)isoindoline-1,3-dione], the pIC50 with MOLM-13 cells [1] (setting [7]) was 7.00 to 8.00; with MOLM-13 cells [1] (setting [8]), above 8.00; with MV4;11 cells (setting [9]) it was 7.00 to 8.00; in the data set on MV4;11 cells (setting [10]) it was above 8.00.
For the molecule `Cc1cccc(-c2cn([C@H]3C[C@H](CNc4ccc5c(c4)C(=O)N(C4CCC(=O)NC4=O)C5=O)C3)nc2C(=O)N(C)C)n1` (stereo partly drawn) [GS-636, 1-(trans-3-(((2-(2,6-dioxopiperidin-3-yl)-1,3-dioxoisoindolin-5-yl)amino)methyl)cyclobutyl)-N,N-dimethyl-4-(6-methylpyridin-2-yl)-1H-pyrazole-3-carboxamide], the pIC50 with MOLM-13 cells [1] (setting [7]), in the data set on MOLM-13 cells [1] (setting [8]), in the data set on MV4;11 cells (setting [9]) and in the data set on MV4;11 cells (setting [10]) was below 6.00 in each case.
Regarding `CNC(=O)c1nn([C@H]2C[C@H](CNc3ccc4c(c3)C(=O)N(C3CCC(=O)NC3=O)C4=O)C2)cc1-c1cccc(C)n1` (stereo partly drawn) [GS-637, 1-(trans-3-(((2-(2,6-dioxopiperidin-3-yl)-1,3-dioxoisoindolin-5-yl)amino)methyl)cyclobutyl)-N-methyl-4-(6-methylpyridin-2-yl)-1H-pyrazole-3-carboxamide], the pIC50 was 6.00 to 7.00 with MOLM-13 cells [1] (setting [7]), 7.00 to 8.00 in the data set with MOLM-13 cells [1] (setting [8]), 7.00 to 8.00 in the data set on MV4;11 cells (setting [9]) and above 8.00 in the data set on MV4;11 cells (setting [10]).
Turning to `Cc1cccc(-c2cn([C@H]3C[C@H](CNc4ccc5c(c4)C(=O)N(C4CCC(=O)NC4=O)C5=O)C3)nc2C2CCNCC2)n1` (stereo partly drawn) [GS-638, 2-(2,6-Dioxopiperidin-3-yl)-5-(((trans-3-(4-(6-methylpyridin-2-yl)-3-(piperidin-4-yl)-1H-pyrazol-1-yl)cyclobutyl)methyl)amino)isoindoline-1,3-dione], the pIC50 with MOLM-13 cells [1] (setting [7]), in the data set with MOLM-13 cells [1] (setting [8]), in the data set on MV4;11 cells (setting [9]) and with MV4;11 cells (setting [10]) was below 6.00 in each case.
Consider `Cc1nn([C@H]2C[C@H](CCCNc3ccc4c(c3)C(=O)N(C3CCC(=O)N(C)C3=O)C4=O)C2)cc1-c1cnc2ccccc2n1` (stereo partly drawn) [GS-639, 2-(1-Methyl-2,6-dioxopiperidin-3-yl)-5-((3-(trans-3-(3-methyl-4-(quinoxalin-2-yl)-1H-pyrazol-1-yl)cyclobutyl)propyl)amino)isoindoline-1,3-dione], for which the pIC50 with MOLM-13 cells [1] (setting [7]), in the data set with MOLM-13 cells [1] (setting [8]), with MV4;11 cells (setting [9]) and in the data set with MV4;11 cells (setting [10]) was below 6.00 throughout.
On to `CCc1nc(C(N)=O)c(Nc2ccc(N3CCC(N4CCN(C)CC4)CC3)c(OC)c2)nc1NC1CCOCC1` [gilteritinib, reference compound], for which the pIC50 was 8.15 with MOLM-13 cells [1] (setting [4]) and 8.64 in the data set with MV4;11 cells (setting [6]).

Source of the values: US20240050428A1 (Cullgen (Shanghai), Inc., priority 2020, published 2024).
